Results: article PMC9317316, “Synthesis and Evaluation of Some New 4H-Pyran Derivatives as Antioxidant, Antibacterial and Anti-HCT-116 Cells of CRC, with Molecular Docking, Antiproliferative, Apoptotic and ADME Investigations” (Pharmaceuticals, 2022)
Read-outs that look alike come from different tables or passages of the source.

Experiments:
HCT-116 cells = assay: Cell viability (cytotoxicity, LDH release) assay; type: cell-based; settings: Homo sapiens, 24 h; for viability at 100 µg/mL: read-out: percent of viable cells
Procedure, shortened: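 Human colorectal HCT-116 cells exposed to compounds at 10, 25, 50 and 100 µg/mL in DMEM with 10% FBS for 24 h at 37 °C. LDH released into the supernatant measured at 600 nm; viability given as % of untreated control OD (mean ± SD, n = 3), 0.1% Triton X-100 as positive control.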

[1] = tested on: CDK2 gene in HCT-116 cells; assay: qRT-PCR expression profile of the CDK2 gene in HCT-116 cells; type: cell-based, human; settings: 24 h, relative to untreated cells (given as decreased x-fold)
Procedure: Second, the expression profiles of the CDK2 gene in HCT-116 cells treated with compounds 4d and 4k were determined. The results were compared with the positive control (cells treated with the well-known cytotoxic drug 5-fluorouracil) and the negative control (untreated cells).
Primers specific for the cyclin-dependent kinase-2 (CDK2) and caspase-3 genes were designed using primer blast (https://www.ncbi.nlm.nih.gov/tools/primer-blast/, accessed on 31 October 2021) or primer3 (https://primer3.ut.ee/, accessed on 31 October 2021) software. The selected genes covered the two main groups of the cyclin-dependent kinase-2 (CDK2) gene and the caspase-3 gene. Primers were used in RT-qPCR analysis to amplify fragments of 100–200 bp in length (Table 7).
Total RNA was extracted from each cell culture flask using the RNeasy extraction kit (RNeasy micro kit, cat. no. 74004). Up to 1 × 10^6 cells, depending on the cell line, were disrupted in buffer RLT and homogenized and disrupted. Ethanol was then added to the lysate, creating conditions that promote the selective binding of RNA to the RNeasy membrane. […] The amount of extracted RNA was quantified by estimating the absorbance at 260 nm. The purity of the RNA was checked by measuring the ratio of the absorbance at 260 and 280 nm, where a ratio ranging from 1.8 to 2.0 was taken to be pure. […]
Quantitative real-time PCR was carried out with the Thermal Cycler Rotorgene Real-Time System II (Rotorgene, South Korea) with the SYBR kit. […]
The relative expression levels through the average cycle threshold (CT) were successfully detected. Average CT values were calculated from the triplicate experiment conducted for each gene; the CT value was detected by subtracting the average CT value of genes from the CT value of actin and GAPDH genes. The relative expression levels of the target genes were calculated using the ΔΔ Ct method and the reference genes GAPDH for the cancer cell line. Finally, a fold change equation […] was used to estimate relative expression levels, while the standard deviation was calculated from the replicated experimental data.

[2] = Reducing power assay (FRAC, Fe3+ to Fe2+); settings: 0-1 mg/mL, absorbance 700 nm
Procedure, shortened: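 Oyaizu method: compound (0–1 mg/mL) incubated with 0.2 M phosphate buffer pH 6.6 and 1% K3Fe(CN)6 at 50 °C for 20 min, then TCA, centrifugation, and 0.1% FeCl3 added to supernatant. Absorbance read at 700 nm; EC50 expressed in mM, BHT as reference.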

CDK2/CyclinA2 enzyme = molecular target: T1, CDK2/CyclinA2 enzyme (Homo sapiens, UniProt P24941); assay: In vitro CDK2 inhibitory assay (Kinase-Glo); type: biochemical; settings: for IC50: deduced from curves over 0.01-10 µM, read-out: IC50 against CDK2
T1 construct: purchased BPS Biosciences, San Diego, CA, USA 79599
Procedure: To further substantiate the promising results of the docking analyses of pyrans 4d and 4K in the ATP active site of CDK2, their in vitro potencies to inhibit the enzyme activity were evaluated over a concentration range of 0.01−10 µM.
CDK-2 inhibition activity of the studied compounds 4d and 4k was evaluated using a commercial CDK2 […] (cat. no.: 79599; BPS Biosciences, San Diego, CA, USA) following the manufacturer’s instructions. Briefly, different concentrations of each compound or the positive control BMS-265246 (0.01, 0. 1, 1 or 10 µM) were incubated with 20 µL of diluted CDK2/CyclinA2 enzyme at 30 °C for 45 min. Following the addition of 50 µL Kinase-Glo® Reagent to each well, the plate was incubated at room temperature for 15 min. Then, the luminescence signal was measured using the microplate reader. The CDK2 inhibitory activity was expressed as inhibition percentage, which was determined by comparison with a control experiment for comparative purposes. IC50 values were deduced from the curves. All measurements were performed in triplicate.

[3] = read-out: Mean IC50 (µM) of cytotoxicity
[4] = read-out: Mean IC50 (µg/mL) of cytotoxicity

| SMILES | viability at 100 µg/mL (HCT-116 cells) [%] | IC50 (HCT-116 cells; [3]) [µM] | IC50 (HCT-116 cells; [4]) [µg/mL] | CDK2 transcript level, fold [1] [fold] | EC50 [2] [µM] | decrease of CDK2 activity (CDK2/CyclinA2 enzyme; at 0.01 µM) [%] | decrease of CDK2 activity (CDK2/CyclinA2 enzyme; at 0.1 µM) [%] | decrease of CDK2 activity (CDK2/CyclinA2 enzyme; at 1 µM) [%] | decrease of CDK2 activity (CDK2/CyclinA2 enzyme; at 10 µM) [%] | IC50 (CDK2/CyclinA2 enzyme) [µM] |
| --- | --- | --- | --- | --- | --- | --- | --- | --- | --- | --- |
| CC1=C(C(=O)OCc2ccccc2)C(c2ccc(C#N)cc2)C(C#N)=C(N)O1 (centres unmarked) [4k, 6-Amino-5-cyano-4-(4-cyano-phenyl)-2-methyl-4H-pyran-3-carboxylic acid benzyl ester] | 11 to 32.5 | 85.9 ± 7.61 | 31.9 ± 2.83 | 0.45 | 1560 ± 102 | 21.9 | 42.4 | 66.3 | 83.6 | 0.214 |
| COc1cc(C2C(C#N)=C(N)OC(C)=C2C(=O)OCc2ccccc2)cc(OC)c1OC (centres unmarked) [4d, 6-Amino-5-cyano-2-methyl-4-(3,4,5-trimethoxy-phenyl)-4H-pyran-3-carboxylic acid benzyl ester] | 11 to 32.5 | 75.1 ± 5.09 | 32.8 ± 2.22 | 0.50 | 149 ± 16 | 26.9 | 41.5 | 72.5 | 89 | 0.143 |
